Source: the supplement of paper PMC13380429

Assays:
Conditions in all cases: 72 h
[1] = tested on: Caco-2; test: cell viability relative to DMSO; higher = less toxic
[2] = tested on: Calu-3; test: as above
[3] = tested on: HepG2; test: as above
[4] = tested on: U2OS; test: as above
[5] = tested on: Vero E6; test: as above
[6] = tested on: Caco-2; test: relative viability EC50 (midpoint between 100% and the lowest measured viability); higher = less toxic
[7] = tested on: Calu-3; test: as above
[8] = tested on: HepG2; test: as above
[9] = tested on: U2OS; test: as above
[10] = tested on: Vero E6; test: as above
[11] = tested on: Caco-2; test: drug sensitivity score (DSS) for viability; higher = more toxic; extreme values may be limits of the assay
[12] = tested on: Calu-3; test: as above
[13] = tested on: HepG2; test: as above
[14] = tested on: U2OS; test: as above
[15] = tested on: Vero E6; test: as above

Row | Structure (SMILES) | cell viability ([1]; 1 nM) | cell viability ([1]; 10 nM) | cell viability ([1]; 100 nM) | cell viability ([1]; 1000 nM) | cell viability ([1]; 10000 nM) | cell viability ([2]; 1 nM) | cell viability ([2]; 10 nM) | cell viability ([2]; 100 nM) | cell viability ([2]; 1000 nM) | cell viability ([2]; 10000 nM) | cell viability ([3]; 1 nM) | cell viability ([3]; 10 nM) | cell viability ([3]; 100 nM) | cell viability ([3]; 1000 nM) | cell viability ([3]; 10000 nM) | cell viability ([4]; 1 nM) | cell viability ([4]; 10 nM) | cell viability ([4]; 100 nM) | cell viability ([4]; 1000 nM) | cell viability ([4]; 10000 nM) | cell viability ([5]; 1 nM) | cell viability ([5]; 10 nM) | cell viability ([5]; 100 nM) | cell viability ([5]; 1000 nM) | cell viability ([5]; 10000 nM) | relative viability EC50 [6] | relative viability EC50 [7] | relative viability EC50 [8] | relative viability EC50 [9] | relative viability EC50 [10] | drug sensitivity score [11] | drug sensitivity score [12] | drug sensitivity score [13] | drug sensitivity score [14] | drug sensitivity score [15]
1 | COCCN1CCN(Cc2ccc(-c3n[nH]c4c3C(=O)c3c(NC(=O)NN5CCOCC5)cccc3-4)cc2)CC1 | 97.9% | 102% | 91.1% | 49% | 55% | 105% | 109% | 86.5% | 39% | 55.8% | 107% | 99.8% | 51% | 15.4% | 11.3% | 102% | 107% | 94.5% | 9.8% | 19% | 97.8% | 102% | 98.2% | 13.1% | 12.5% | 0.186 µM | 0.165 µM | 0.0894 µM | 0.269 µM | 0.306 µM | 10.8 | 13.4 | 21.9 | 17.1 | 16
2 | COc1ccccc1CC(=N)N1C[C@@H]2C(=O)CCC(c3ccccc3)(c3ccccc3)[C@@H]2C1 | 96.6% | 96.5% | 95.3% | 109% | 98.4% | 94.1% | 88.4% | 98.3% | 109% | 86.6% | 93% | 95.9% | 88.2% | 106% | 105% | 103% | 95.1% | 101% | 101% | 93.8% | 94.3% | 101% | 94.7% | 95.9% | 110% | > 10 µM | > 10 µM | > 10 µM | > 10 µM | > 10 µM | 0 | 0 | 0 | 0 | 0
3 | C[C@@H](N)[C@H]1CC[C@H](C(=O)Nc2ccncc2)CC1 | 101% | 95.3% | 96.2% | 104% | 108% | 84.6% | 97.2% | 104% | 114% | 122% | 97.8% | 96.8% | 95.2% | 84.5% | 99.3% | 99% | 102% | 91.1% | 102% | 92% | 97.8% | 99.1% | 96.4% | 93.7% | 92.2% | > 10 µM | > 10 µM | > 10 µM | > 10 µM | > 10 µM | 0 | 0 | 0 | 0 | 0
